≈ marks a conversion by molar mass, not a printed value. Where a name gives a salt, the structure may show the parent alone. Read-outs that look alike come from different tables or passages of the source.
How the values were obtained:
Format in all cases: physicochemical
[1] = Dynamic vapor sorption (DVS) hygroscopicity test; conditions: for Hygroscopicity: weight gain by moisture absorption: 0% RH-95% RH, 25° C.; for change of crystal form before and after the DVS test: result in words
Description: (§1) DSC, TGA and DVS tests were conducted for crystal form A of a hydrochloride of a compound of formula I, crystal form B of a sulfate of a compound of formula I, crystal form C of a hydrobromide of a compound of formula I and crystal form D of a phosphate of a compound of formula I.

[2] = Solubility test in water, SGF, FaSSIF and FeSSIF (37° C., HPLC); conditions: for difference in the equilibrium solubilities (24 h) between crystal form 1 and crystal form D: FaSSIF and FeSSIF, result in words; for Solubility (based on a compound of formula I) / solubility at 30 min / solubility at 2 h / solubility at 4 h / solubility at 24 h: 37° C.; for solubility at 30 min / solubility at 2 h / solubility at 4 h / solubility at 24 h: 37 °C, thermodynamic from solid, read-out: Solubility (based on a compound of formula I)
Description: 4 samples, each of crystal form 1 of a compound of formula I and crystal form D of a phosphate of a compound of formula I each with appropriate amount were weighed and placed into a 4 mL transparent glass bottle respectively, 1 mL of water, simulated gastric fluid (SGF), fasted-state simulated intestinal fluid (FaSSIF) and fed-state simulated intestinal fluid (FeSSIF) were added respectively, sample suspension was obtained and quickly placed on a shaker (37° C., 200 rpm) and the shaker was shaked, the samples were observed 5 minutes later, a quantity of samples or medium were supplemented to obtain mild suspension, samples were taken at 30 minutes, 2 hours, 4 hours and 24 hours, respectively, centrifuged for 10 minutes at 12000 rpm, the supernatants were collected, diluted appropriately and then were tested by a higher performance liquid chromatography.
The sample concentrations were calculated with an external standard method.

[3] = Stability test at high temperature and in accelerated conditions (HPLC purity, XRPD, DSC); conditions: for Stability study: Crystal form: 2 weeks (XRPD); for 2-week physical and chemical stabilities: high temperature (60° C.) and accelerated conditions (40° C./75% RH), result in words
Description: About 1 mg of crystal form 1 of a compound of formula I and 1 mg of crystal form D of a phosphate of a compound of formula I samples were weighed and each was placed into a 40 mL transparent glass bottle, the samples were placed in a stability chamber in accelerated conditions (40° C./75% RH, open) and at a high temperature (60° C., sealed) respectively. For the open samples, the bottle cap was removed and the bottle neck was covered with aluminium-foil paper stabbed with pinholes to avoid cross contamination; for the closed samples, each bottle was covered with a cap and sealed tightly. Samples were taken at week 1 and week 2, respectively, after diluted with diluent (acetonitrile/water (1/1) (v/v), the liquid phases were injected according to the chromatographic conditions in Table 12 to determine sample purities.
The sample purities were calculated with an area normalization method.

[4] = DSC test of salt crystal forms (thermostability); conditions: single and higher melting points, result in words
Description: as §1

Compound: C[C@@H](O)c1nc2cnc3ccoc3c2n1[C@H]1CC[C@H](CC#N)OC1 [Crystal form 1 of a compound of formula I] [2-[(2R,5S)-5-[2-[(R)-1-hydroxyethyl]furo[3,2-b]imidazo[4,5-d]pyridin-1-yl]tetrahydropyran-2-yl]acetonitrile]
- Hygroscopicity: weight gain by moisture absorption ([1]; DVS): 5.2%
- Hygroscopicity: weight gain by moisture absorption ([1]; DVS, listed as crystal form 1 of a compound of formula I): 5.2%
- water remaining after desorption ([1]; DVS, desorption 95% RH to 0% RH): 2%
- difference in the equilibrium solubilities (24 h) between crystal form 1 and crystal form D [2]: no obvious difference
- Solubility (based on a compound of formula I) ([2]; Fasted-state simulated intestinal fluid (FaSSIF), 30 min): 170 µg/mL
- Solubility (based on a compound of formula I) ([2]; Fasted-state simulated intestinal fluid (FaSSIF), 2 h, listed as Crytstal form 1 of a compound of formula I): 190 µg/mL
- Solubility (based on a compound of formula I) ([2]; Fasted-state simulated intestinal fluid (FaSSIF), 4 h, listed as Crytstal form 1 of a compound of formula I): 160 µg/mL
- Solubility (based on a compound of formula I) ([2]; Fasted-state simulated intestinal fluid (FaSSIF), 24 h, listed as Crytstal form 1 of a compound of formula I): 170 µg/mL
- Solubility (based on a compound of formula I) ([2]; Simulated gastric fluid (SGF), 30 min, listed as Crytstal form 1 of a compound of formula I): 16520 µg/mL
- Solubility (based on a compound of formula I) ([2]; Simulated gastric fluid (SGF), 2 h, listed as Crytstal form 1 of a compound of formula I): 16710 µg/mL
- Solubility (based on a compound of formula I) ([2]; Simulated gastric fluid (SGF), 4 h, listed as Crytstal form 1 of a compound of formula I): 16880 µg/mL
- Solubility (based on a compound of formula I) ([2]; Simulated gastric fluid (SGF), 24 h (equilibrium), listed as Crytstal form 1 of a compound of formula I): 16420 µg/mL
- Solubility (based on a compound of formula I) ([2]; Water, 30 min, listed as Crytstal form 1 of a compound of formula I): 160 µg/mL
- Solubility (based on a compound of formula I) ([2]; Water, 2 h, listed as Crytstal form 1 of a compound of formula I): 180 µg/mL
- Solubility (based on a compound of formula I) ([2]; Water, 4 h, listed as Crytstal form 1 of a compound of formula I): 160 µg/mL
- Solubility (based on a compound of formula I) ([2]; Water, 24 h (equilibrium), listed as Crytstal form 1 of a compound of formula I): 180 µg/mL
- Stability study (purity) ([3]; 0 day): 98.74 Area %
- Stability study (purity) ([3]; 40° C./75% RH, open, 1 week): 98.71 Area %
- Stability study (purity) ([3]; 40° C./75% RH, open, 2 weeks): 98.77 Area %
- Stability study: Crystal form ([3]; 40° C./75% RH, open): Unchanged
- Stability study (purity) ([3]; 60° C., sealed, 1 week): 98.73 Area %
- Stability study (purity) ([3]; 60° C., sealed, 2 weeks): 98.74 Area %
- Stability study: Crystal form ([3]; 60° C., sealed): Unchanged
- 2-week physical and chemical stabilities [3]: good

Compound: C[C@@H](O)c1nc2cnc3ccoc3c2n1[C@H]1CC[C@H](CC#N)OC1 [2-[(2R,5S)-5-[2-[(R)-1-hydroxyethyl]furo[3,2-b]imidazo[4,5-d]pyridin-1-yl]tetrahydropyran-2-yl]acetonitrile]
- solubility at 30 min ([2]; fasted-state simulated intestinal fluid (FaSSIF), fassif, Fasted-state simulated intestinal fluid (FaSSIF), 30 min): 170 µg/mL (≈ 521 µM)
- solubility at 2 h ([2]; fasted-state simulated intestinal fluid (FaSSIF), fassif, Fasted-state simulated intestinal fluid (FaSSIF), 2 h): 170 µg/mL (≈ 521 µM)
- solubility at 4 h ([2]; fasted-state simulated intestinal fluid (FaSSIF), fassif, Fasted-state simulated intestinal fluid (FaSSIF), 4 h): 170 µg/mL (≈ 521 µM)
- solubility at 24 h ([2]; fasted-state simulated intestinal fluid (FaSSIF), fassif, Fasted-state simulated intestinal fluid (FaSSIF), 24 h): 160 µg/mL (≈ 490 µM)
- solubility at 30 min ([2]; fed-state simulated intestinal fluid (FeSSIF), fessif, Fed-state simulated intestinal fluid (FeSSIF), 30 min): 260 µg/mL (≈ 797 µM)
- solubility at 2 h ([2]; fed-state simulated intestinal fluid (FeSSIF), fessif, Fed-state simulated intestinal fluid (FeSSIF), 2 h): 230 µg/mL (≈ 705 µM)
- solubility at 4 h ([2]; fed-state simulated intestinal fluid (FeSSIF), fessif, Fed-state simulated intestinal fluid (FeSSIF), 4 h): 220 µg/mL (≈ 674 µM)
- solubility at 24 h ([2]; fed-state simulated intestinal fluid (FeSSIF), fessif, Fed-state simulated intestinal fluid (FeSSIF), 24 h): 240 µg/mL (≈ 735 µM)
- solubility at 30 min ([2]; simulated gastric fluid (SGF), simulated gastric fluid, Simulated gastric fluid (SGF), 30 min): 30200 µg/mL (≈ 92600 µM)
- solubility at 2 h ([2]; simulated gastric fluid (SGF), simulated gastric fluid, Simulated gastric fluid (SGF), 2 h): 29700 µg/mL (≈ 91100 µM)
- solubility at 4 h ([2]; simulated gastric fluid (SGF), simulated gastric fluid, Simulated gastric fluid (SGF), 4 h): 29500 µg/mL (≈ 90300 µM)
- solubility at 24 h ([2]; simulated gastric fluid (SGF), simulated gastric fluid, Simulated gastric fluid (SGF), 24 h (equilibrium)): 30200 µg/mL (≈ 92500 µM)

Compound: C[C@@H](O)c1nc2cnc3ccoc3c2n1[C@H]1CC[C@H](CC#N)OC1 [Crystal form B of a sulfate of a compound of formula I] [2-[(2R,5S)-5-[2-[(R)-1-hydroxyethyl]furo[3,2-b]imidazo[4,5-d]pyridin-1-yl]tetrahydropyran-2-yl]acetonitrile]
- Hygroscopicity: weight gain by moisture absorption ([1]; DVS): 9.4%
- Hygroscopicity: weight gain by moisture absorption ([1]; DVS, listed as crystal form B of a sulfate of a compound of formula I): 9.4%
- change of crystal form before and after the DVS test [1]: no significant changes
- thermostability of the crystal form [4]: relatively good

Compound: C[C@@H](O)c1nc2cnc3ccoc3c2n1[C@H]1CC[C@H](CC#N)OC1 [Crystal form D of a phosphate of a compound of formula I] [2-[(2R,5S)-5-[2-[(R)-1-hydroxyethyl]furo[3,2-b]imidazo[4,5-d]pyridin-1-yl]tetrahydropyran-2-yl]acetonitrile]
- Hygroscopicity: weight gain by moisture absorption ([1]; DVS): 4.7%
- Hygroscopicity: weight gain by moisture absorption ([1]; DVS, listed as crystal form D of a phosphate of a compound of formula I): 4.7%
- change of crystal form before and after the DVS test [1]: no significant changes
- difference in the equilibrium solubilities (24 h) between crystal form 1 and crystal form D [2]: no obvious difference
- Solubility (based on a compound of formula I) ([2]; Fed-state simulated intestinal fluid (FeSSIF), 30 min): 360 µg/mL
- Solubility (based on a compound of formula I) ([2]; Fed-state simulated intestinal fluid (FeSSIF), 2 h): 220 µg/mL
- Solubility (based on a compound of formula I) ([2]; Fed-state simulated intestinal fluid (FeSSIF), 4 h): 190 µg/mL
- Solubility (based on a compound of formula I) ([2]; Fed-state simulated intestinal fluid (FeSSIF), 24 h): 210 µg/mL
- equilibrium solubility (24 h) relative to crystal form 1 of a compound of formula I ([2]; SGF): 2 times
- Solubility (based on a compound of formula I) ([2]; Water, 30 min): 1850 µg/mL
- Solubility (based on a compound of formula I) ([2]; Water, 2 h): 1780 µg/mL
- Solubility (based on a compound of formula I) ([2]; Water, 4 h): 1730 µg/mL
- Solubility (based on a compound of formula I) ([2]; Water, 24 h (equilibrium)): 1800 µg/mL
- equilibrium solubility (24 h) relative to crystal form 1 of a compound of formula I ([2]; water): 10 times
- Stability study (purity) ([3]; 0 day): 99.13 Area %
- Stability study (purity) ([3]; 40° C./75% RH, open, 1 week): 99.11 Area %
- Stability study (purity) ([3]; 40° C./75% RH, open, 2 weeks): 99.10 Area %
- Stability study: Crystal form ([3]; 40° C./75% RH, open): Unchanged
- Stability study (purity) ([3]; 60° C., sealed, 1 week): 99.11 Area %
- Stability study (purity) ([3]; 60° C., sealed, 2 weeks): 99.11 Area %
- Stability study: Crystal form ([3]; 60° C., sealed): Unchanged
- 2-week physical and chemical stabilities [3]: good
- thermostability of the crystal form [4]: relatively good
